Assay results reported in patent publication US20030013883A1, “Tropane analogs binding to monoamine transporters” (priority 2000, published 2003).
Read-outs that look alike come from different tables or passages of the source.

How the values were obtained:
[1] = molecular target: T1, norepinephrine transporter (NET) (Rattus norvegicus, UniProt Q63380); test: Radioligand binding to norepinephrine transporter, [3H]nisoxetine, rat cerebral cortex homogenate
T1 construct: from tissue; host or cells: rat cerebral cortex
From the text: (§1) 30: 89-92, 1990; Andersen, P. H., J. Neurochem. 48:1887-1896, 1987).

[2] = molecular target: dopamine transporter (DAT) (Rattus norvegicus, UniProt P23977); test: Radioligand binding to dopamine transporter, [3H]GBR-12935, rat corpus striatum homogenate;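 also: displacement read as filter-bound tritium by liquid scintillation counting, roughly 1 mg wet tissue per tube, IC50 from fitted concentration-inhibition curves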
Experimental: For DAT assays, corpus striatum tissue from rat forebrain was rapidly dissected on ice, pooled, weighed, and homogenized at 30 mg/mL in cold DAT buffer (50 mM Tris citrate, pH 7.4, 120 mM NaCl, 4 mM MgCl2) and stored at −70° C. The pellet was suspended in the assay buffer to provide the equivalent of about 1 mg of wet weight per assay tube.
L=400 pM) and 1.0 μM GBR-12909 (Research Biochemicals International, Natick, Mass.) as blank (Kula, N. S. et al., Neuropharmacology.
Assay tubes were incubated at room temperature for 120 min (SERT) or on ice for 180 min (NET) or 45 min (DAT). Labeled tissue samples were recovered in a Brandel Cell Harvester on glass fiber filter sheets saturated with 0.3% (v/v) aqueous polyethyleneimine, washed with ice-cold 0.9% NaCl, and counted for tritium in a liquid scintillation counter. Concentration-inhibition curves were computer-fit to determine IC50±SEM and converted to Ki values in nM from the Cheng -Prusoff relationship Ki=IC50/(1+[L]/Kd).

[3] = molecular target: T2, serotonin transporter (SERT) (Rattus norvegicus, UniProt P31652); test: Radioligand binding to serotonin transporter, [3H]paroxetine, rat cerebral cortex homogenate; settings: for Selectivity for SERT: ratio of Ki for NET or DAT to that for SERT (values match DAT/SERT), larger number is more selective for SERT
T2 construct: For SERT and NET assays, rat cerebral cortex was homogenized in cold SERT assay buffer; from tissue; host or cells: rat cerebral cortex
From the text: as §1

[4] = rat cerebral cortex membranes, [3H]nisoxetine 600 pM, on ice 180 min, Ki from IC50 by Cheng-Prusoff, read-out: NET (Ki)
[5] = read-out: DAT (Ki), rat corpus striatum membranes, [3H]GBR-12935 400 pM, on ice 45 min, Ki from IC50 by Cheng-Prusoff
[6] = rat cerebral cortex membranes, [3H]paroxetine 200 pM, room temperature 120 min, Ki from IC50 by Cheng-Prusoff, read-out: SERT (Ki)

T2 sequence (P31652 whole entry): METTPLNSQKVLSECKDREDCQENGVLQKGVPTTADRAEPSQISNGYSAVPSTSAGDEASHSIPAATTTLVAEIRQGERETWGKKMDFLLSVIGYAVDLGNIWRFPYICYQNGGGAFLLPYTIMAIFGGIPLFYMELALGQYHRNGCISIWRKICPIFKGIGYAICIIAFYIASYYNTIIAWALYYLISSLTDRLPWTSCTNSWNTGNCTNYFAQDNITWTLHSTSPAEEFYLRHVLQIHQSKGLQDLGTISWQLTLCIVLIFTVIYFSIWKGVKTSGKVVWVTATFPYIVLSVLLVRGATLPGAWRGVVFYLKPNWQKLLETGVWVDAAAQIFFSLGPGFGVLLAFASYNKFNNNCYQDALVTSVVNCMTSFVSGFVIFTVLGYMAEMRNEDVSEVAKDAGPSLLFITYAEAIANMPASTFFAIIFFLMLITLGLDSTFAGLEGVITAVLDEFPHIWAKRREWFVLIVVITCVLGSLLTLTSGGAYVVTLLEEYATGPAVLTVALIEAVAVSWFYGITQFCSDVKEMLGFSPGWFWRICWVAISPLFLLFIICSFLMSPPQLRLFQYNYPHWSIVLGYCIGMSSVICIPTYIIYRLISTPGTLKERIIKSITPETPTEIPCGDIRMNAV
T1 sequence (Q63380 1-617): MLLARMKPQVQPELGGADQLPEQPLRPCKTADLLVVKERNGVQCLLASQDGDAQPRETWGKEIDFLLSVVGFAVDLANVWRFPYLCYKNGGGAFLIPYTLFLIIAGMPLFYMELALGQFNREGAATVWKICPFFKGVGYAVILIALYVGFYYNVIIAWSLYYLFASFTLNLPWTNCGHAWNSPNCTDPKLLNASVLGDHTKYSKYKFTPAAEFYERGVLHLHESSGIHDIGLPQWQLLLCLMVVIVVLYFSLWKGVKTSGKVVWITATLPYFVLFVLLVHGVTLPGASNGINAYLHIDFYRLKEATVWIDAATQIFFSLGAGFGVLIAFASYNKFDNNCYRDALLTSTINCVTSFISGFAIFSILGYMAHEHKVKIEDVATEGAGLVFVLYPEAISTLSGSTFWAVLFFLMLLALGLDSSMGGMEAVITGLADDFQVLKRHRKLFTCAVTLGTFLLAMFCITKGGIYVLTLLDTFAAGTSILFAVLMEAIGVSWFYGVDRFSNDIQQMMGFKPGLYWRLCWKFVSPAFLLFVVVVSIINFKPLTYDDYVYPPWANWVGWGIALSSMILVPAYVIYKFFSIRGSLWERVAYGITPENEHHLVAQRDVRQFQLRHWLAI
Sequence of dopamine transporter (DAT) (P23977 whole entry): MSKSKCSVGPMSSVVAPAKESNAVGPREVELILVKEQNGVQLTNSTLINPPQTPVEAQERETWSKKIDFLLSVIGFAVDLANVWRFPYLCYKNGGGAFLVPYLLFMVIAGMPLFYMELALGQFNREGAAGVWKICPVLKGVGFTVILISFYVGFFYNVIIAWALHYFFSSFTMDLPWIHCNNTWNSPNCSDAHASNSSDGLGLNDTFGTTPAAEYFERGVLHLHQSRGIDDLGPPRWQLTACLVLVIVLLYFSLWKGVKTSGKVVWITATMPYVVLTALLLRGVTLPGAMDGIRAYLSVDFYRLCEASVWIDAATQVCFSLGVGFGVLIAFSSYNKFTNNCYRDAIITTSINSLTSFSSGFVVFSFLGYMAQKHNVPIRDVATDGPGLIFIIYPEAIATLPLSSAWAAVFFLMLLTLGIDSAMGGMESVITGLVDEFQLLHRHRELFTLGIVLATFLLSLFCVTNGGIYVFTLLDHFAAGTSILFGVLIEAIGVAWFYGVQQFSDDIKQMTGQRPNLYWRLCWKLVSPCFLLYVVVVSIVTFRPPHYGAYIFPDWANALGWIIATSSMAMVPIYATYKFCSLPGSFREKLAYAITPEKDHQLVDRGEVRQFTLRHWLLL

SMILES	Ki [1, 4]	Ki [2, 5]	Ki [3, 6]	Selectivity for SERT [3]	Ki ([3]; read-out: SERT (Ki))	Ki [2]	melting point	Ki [3]	Ki [1]
COC(=O)C1C(c2ccc(-c3cccc(O)c3)cc2)CC2CCC1N2C (centres unmarked) [Compound 2]	0.155 µM	0.0152 µM	–	–	–	–	–	–	–
COC(=O)C1C(c2ccc(-c3ccccc3OC)cc2)CC2CCC1N2C (centres unmarked) [Compound 3a]	> 10 µM	0.357 µM	–	–	–	–	–	–	–
COC(=O)C1C(c2ccc(-c3cccc(OC)c3)cc2)CC2CCC1N2C (centres unmarked) [Compound 3b]	> 3 µM	0.0587 µM	0.00189 µM	31.1	–	–	–	–	–
COC(=O)C1C(c2ccc(-c3ccc(OC)cc3)cc2)CC2CCC1N2C (centres unmarked) [Compound 3c]	0.352 µM	0.0132 µM	0.032 µM	0.41	–	–	–	–	–
COC(=O)C1C(c2ccc(-c3ccccc3[N+](=O)[O-])cc2)CC2CCC1N2C (centres unmarked) [Compound 4a]	> 3 µM	–	–	1	–	–	–	–	–
COC(=O)C1C(c2ccc(-c3cccc([N+](=O)[O-])c3)cc2)CC2CCC1N2C (centres unmarked) [Compound 4b]	0.963 µM	0.00954 µM	0.0008 µM	11.9	–	–	–	–	–
COC(=O)C1C(c2ccc(-c3ccc([N+](=O)[O-])cc3)cc2)CC2CCC1N2C (centres unmarked) [Compound 4c]	0.37 µM	0.0051 µM	0.0297 µM	0.17	–	–	–	–	–
COC(=O)C1C(c2ccc(-c3cccc(N)c3)cc2)CC2CCC1N2C (centres unmarked) [Compound 5]	0.661 µM	0.0242 µM	–	–	–	–	–	–	–
COC(=O)C1C(c2ccc(-c3ccccc3C(C)=O)cc2)CC2CCC1N2C (centres unmarked) [Compound 6a]	> 20 µM	1.02 µM	–	–	–	–	–	–	–
COC(=O)C1C(c2ccc(-c3cccc(C(C)=O)c3)cc2)CC2CCC1N2C (centres unmarked) [Compound 6b]	> 50 µM	0.0124 µM	–	–	–	–	–	–	–
COC(=O)C1C(c2ccc(-c3ccc(C(C)=O)cc3)cc2)CC2CCC1N2C (centres unmarked) [Compound 6c]	0.754 µM	0.0191 µM	–	–	–	–	–	–	–
COC(=O)[C@H]1[C@@H](c2ccc(-c3cccc(CNC(=O)OC(C)(C)C)c3)cc2)C[C@@H]2CC[C@H]1N2C [Compound 7, 3β-[3′-(tert-Butoxycarbonylaminomethyl)biphenyl-4-yl]-Tropane-2β-carboxylic acid methyl ester]	> 30 µM	–	–	1	> 10 µM	> 10 µM	–	–	–
COC(=O)C1C(c2ccc(-c3cccc(C(=O)c4ccccc4)c3)cc2)CC2CCC1N2C (centres unmarked) [Compound 8]	> 3 µM	–	–	1	> 3 µM	> 3 µM	–	–	–
COC(=O)C1C(c2ccc(-c3cccc(C4OCCO4)c3)cc2)CC2CCC1N2C (centres unmarked) [Compound 9]	> 30 µM	–	–	0.03	> 10 µM	0.363 µM	–	–	–
COC(=O)C1C2CCC(CC1c1ccc(-c3cccc(OC)c3)cc1)N2 (stereo not drawn) [Compound 10, 3β-(3′-methoxybiphenyl-4-yl)nortropane-2β-carboxylic acid methyl ester]	0.295 µM	–	–	306	0.00232 µM	0.71 µM	102 to 104 °C	–	–
COC(=O)[C@H]1[C@@H](c2ccc(-c3cccs3)cc2)C[C@@H]2CC[C@H]1N2C [Compound 11, 3β-(4-Thiophen-2-yl-phenyl)tropane-2β-carboxylic acid methyl ester]	–	–	–	346	–	0.052 µM	–	0.00015 µM	0.158 µM
COC(=O)[C@H]1[C@@H](c2ccc(-c3ccsc3)cc2)C[C@@H]2CC[C@H]1N2C [Compound 12, 3β-(4-Thiophen-3-yl-phenyl)tropane-2β-carboxylic acid methyl ester]	–	–	–	711	–	0.0121 µM	–	0.00017 µM	0.189 µM
COC(=O)C1C(c2ccc(-c3ccco3)cc2)CC2CCC1N2C (centres unmarked) [Compound 13]	–	0.00714 µM	0.00113 µM	6.32	–	–	–	–	1.4 µM
COC(=O)[C@H]1[C@@H](c2ccc(-c3nccs3)cc2)C[C@@H]2CC[C@H]1N2C [Compound 14, 3β-(4-Thiazol-2-yl-phenyl)tropane-2β-carboxylic acid methyl ester]	–	–	–	310	–	0.52 µM	–	0.00167 µM	> 10 µM
COC(=O)C1C(c2ccc(-c3ccccn3)cc2)CC2CCC1N2C (centres unmarked) [Compound 15]	≥ 10 µM	0.044 µM	0.161 µM	0.27	–	–	–	–	–
COC(=O)C1C(c2ccc(-c3cccnc3)cc2)CC2CCC1N2C (centres unmarked) [Compound 16]	1.41 µM	–	0.00354 µM	7.3	–	0.0265 µM	–	–	–
COC(=O)C1C2CCC(CC1c1ccc(-c3cncc(OC)c3)cc1)N2 (stereo not drawn) [Compound 18, 3β-[4-(5′-Methoxypyridin-3-yl)-phenyl]nortropane-2β-Carboxylic Acid Methyl Ester]	1.59 µM	–	–	150	0.00391 µM	0.587 µM	–	–	–
COC(=O)C1C(c2ccc(-c3cncnc3)cc2)CC2CCC1N2C (centres unmarked) [Compound 19]	> 10 µM	0.344 µM	0.0331 µM	10.4	–	–	–	–	–
COC(=O)C1C(c2ccc(-c3cnc4ccccc4c3)cc2)CC2CCC1N2C (centres unmarked) [Compound 20]	> 3 µM	0.0598 µM	0.02 µM	3.0	–	–	–	–	–
COC(=O)C1C(c2ccc(-c3cncc4ccccc34)cc2)CC2CCC1N2C (centres unmarked) [Compound 21]	> 10 µM	–	–	10	–	> 30 µM	–	–	–
